Reference: patent US11414406B2, “Antagonists of the muscarinic acetylcholine receptor M4” (Vanderbilt University, priority 2018, dated 2022)
pIC50: −log10 of the molar value.

Target: T1, Human M4 (Homo sapiens, UniProt P08173)
T1 construct: expressed in transfected cells
T1 sequence (P08173 1-479): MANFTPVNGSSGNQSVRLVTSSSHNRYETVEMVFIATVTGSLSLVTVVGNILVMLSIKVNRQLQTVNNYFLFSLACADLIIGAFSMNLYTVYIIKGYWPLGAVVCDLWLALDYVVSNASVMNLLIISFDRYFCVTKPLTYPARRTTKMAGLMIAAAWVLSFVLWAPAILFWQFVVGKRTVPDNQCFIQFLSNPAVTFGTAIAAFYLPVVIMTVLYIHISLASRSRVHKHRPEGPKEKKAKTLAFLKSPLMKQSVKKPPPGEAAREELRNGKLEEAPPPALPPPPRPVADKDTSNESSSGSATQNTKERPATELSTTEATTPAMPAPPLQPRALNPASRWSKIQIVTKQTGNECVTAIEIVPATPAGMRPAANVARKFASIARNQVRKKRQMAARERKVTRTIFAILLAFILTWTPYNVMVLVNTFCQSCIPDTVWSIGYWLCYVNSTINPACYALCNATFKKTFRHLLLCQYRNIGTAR
Assay: mAChR M4 cell-based functional assay (calcium flux, decrease of EC80 acetylcholine response)
Details: M4/Gqi5/CHO-K1 cells; for remaining activity at 30 µM: % ACh maximum at 30 μM, read-out: Emin (% ACh maximum at 30 μM); for pIC50: decrease of response to EC80 acetylcholine
Protocol: Human M4 cDNA, along with the chimeric G protein Gqi5, were transfected into Chinese hamster ovary (CHO-K1) cells purchased from the American Type Culture Collection using Lipofectamine2000. M4/Gqi5/CHO cells were grown in Ham's F-12 medium containing 10% heat-inactivated fetal bovine serum (FBS), 20 mM HEPES, 500 μg/mL G418 sulfate, and 200 μg/mL Hygromycin B.
For high throughput measurement of agonist-evoked increases in intracellular calcium, CHO-K1 cells stably expressing muscarinic receptors were plated in growth medium lacking G418 and hygromycin at 15,000 cells/20 μL/well in Greiner 384-well black-walled, tissue culture (TC)-treated, clear-bottom plates (VWR). Cells were incubated overnight at 37° C. and 5% CO2. The next day, cells were washed using an ELX 405 (BioTek) with assay buffer; the final volume was then aspirated to 20 μL. Next, 20 μL of a 2.3 μM stock of Fluo-4/acetoxymethyl ester (Invitrogen, Carlsbad, Calif.), prepared as a 2.3 mM stock in DMSO and mixed in a 1:1 ratio with 10% (w/v) Pluronic F-127 and diluted in assay buffer, was added to the wells and the cell plates were incubated for 50 min at 37° C. and 5% CO2. Dye was removed by washing with the ELX 405 and the final volume was aspirated to 20 μL. Compound master plates were formatted in a 10 point concentration-response curve (CRC) format (1:3 dilutions) in 100% DMSO with a starting concentration of 10 or 1 mM using a BRAVO liquid handler (Agilent). Test compound CRCs were then transferred to daughter plates (240 nL) using the Echo acoustic plate reformatter (Labcyte, Sunnyvale, Calif.) and then diluted into assay buffer (40 μL) to a 2× stock using a Thermo Fisher Combi (Thermo Fisher Scientific, Waltham, Mass.).
Calcium flux was measured using the Functional Drug Screening System (FDSS) 6000 or 7000 (Hamamatsu Corporation, Tokyo, Japan) as an increase in the fluorescent static ratio. Compounds were applied to cells (20 μL, 2×) using the automated system of the FDSS at 2 seconds into the protocol and the data were collected at 1 Hz. At 143 s, 10 μL of an EC20 concentration of the muscarinic receptor agonist acetylcholine was added (5×), followed by the addition of 12 μL of an EC80 concentration of acetylcholine at the 268 s time point (5×). Agonist activity was analyzed as a concentration-dependent increase in calcium mobilization upon compound addition. Positive allosteric modulator activity was analyzed as a concentration-dependent increase in the EC20 acetylcholine response. Antagonist activity was analyzed as a concentration-dependent decrease in the EC80 acetylcholine response; for the purposes of the tables herein, an IC50 (inhibitory concentration 50) was calculated as a concentration-dependent decrease of the response elicited by an EC80 concentration of acetylcholine. Concentration-response curves were generated using a four-parameter logistical equation in XLFit curve fitting software (HMS, Bridgewater, N.J.) for Excel (Microsoft, Redmond, Wash.) or Prism (GraphPad Software, Inc., San Diego, Calif.) or the Dotmatics software platform (Dotmatics, Bishop's Stortford, UK).
Compounds were synthesized as described above. Activity (IC50 and Emin) was determined in the inAChR M4 cell-based functional assay as described above and the data are shown in Table 2. The compound numbers correspond to the compound numbers used in Examples 1 and 2 and Tables 1 and 2.

| SMILES | remaining activity at 30 µM [%] | pIC50 |
| --- | --- | --- |
| c1cc(C2CC2)ncc1-c1ccc(N[C@H]2[C@@H]3CN(CC4CCOCC4)C[C@@H]32)nn1 [Compound 21, (1R,5S,6s)-N-[6-(6-cyclopropyl-3-pyridyl)pyridazin-3-yl]-3-(tetrahydropyran-4-ylmethyl)-3-azabicyclo[3.1.0]hexan-6-amine] | 30 |  |
| Fc1cccc(CN2C[C@@H]3[C@H](C2)[C@H]3Nc2ccc(-c3cc(F)ccc3Cl)nn2)c1 [Compound 22, (1R,5S,6s)-N-[6-(2-chloro-5-fluoro-phenyl)pyridazin-3-yl]-3-[(3-fluorophenyl)methyl]-3-azabicyclo[3.1.0]hexan-6-amine] | 29 |  |
| Fc1ccc(CN2C[C@@H]3[C@H](C2)[C@H]3Nc2ccc(-c3cc(F)ccc3Cl)nn2)cc1 [Compound 23, (1R,5S,6s)-N-[6-(2-chloro-5-fluoro-phenyl)pyridazin-3-yl]-3-[(4-fluorophenyl)methyl]-3-azabicyclo[3.1.0]hexan-6-amine] | 30 | 5.78 |
| Fc1ccc(Cl)c(-c2ccc(N[C@H]3[C@@H]4CN(Cc5ccccn5)C[C@@H]43)nn2)c1 [Compound 24, (1R,5S,6s)-N-[6-(2-chloro-5-fluoro-phenyl)pyridazin-3-yl]-3-(2-pyridylmethyl)-3-azabicyclo[3.1.0]hexan-6-amine] | 16 | 5.17 |
| Fc1ccc(Cl)c(-c2ccc(N[C@H]3[C@@H]4CN(Cc5ccc6c(c5)OCO6)C[C@@H]43)nn2)c1 [Compound 25, (1R,5S,6s)-3-(1,3-benzodioxol-5-ylmethyl)-N-[6-(2-chloro-5-fluoro-phenyl)pyridazin-3-yl]-3-azabicyclo[3.1.0]hexan-6-amine] | 6 | 6.05 |
| Cc1cc(CN2C[C@@H]3[C@H](C2)[C@H]3Nc2ccc(-c3cc(F)ccc3Cl)nn2)nn1C [Compound 26, (1R,5S,6s)-N-[6-(2-chloro-5-fluoro-phenyl)pyridazin-3-yl]-3-[(1,5-dimethylpyrazol-3-yl)methyl]-3-azabicyclo[3.1.0]hexan-6-amine] | 13 | 5.32 |
| CC(C)(C)CCN1C[C@@H]2[C@H](C1)[C@H]2Nc1ccc(-c2cc(F)ccc2Cl)nn1 [Compound 27, (1R,5S,6s)-N-[6-(2-chloro-5-fluoro-phenyl)pyridazin-3-yl]-3-(3,3-dimethylbutyl)-3-azabicyclo[3.1.0]hexan-6-amine] | 4 | 7.59 |
| c1ccc(-c2ccc(N[C@H]3[C@@H]4CN(CC5CCOCC5)C[C@@H]43)nn2)cc1 [Compound 28, (1R,5S,6s)-N-(6-phenylpyridazin-3yl)-3-(tetrahydropyran-4-ylmethyl)-3-azabicyclo[3.1.0]hexan-6-amine] | 28 |  |
| c1ccc2cc(-c3ccc(N[C@H]4[C@@H]5CN(CC6CCOCC6)C[C@@H]54)nn3)ccc2c1 [Compound 29, (1R,5S,6s)-N-[6-(2-naphthyl)pyridazin-3-yl]-3-(tetrahydropyran-4-ylmethyl)-3-azabicyclo[3.1.0]hexan-6-amine] | 15 |  |
| c1cc2c(cc1-c1ccc(N[C@H]3[C@@H]4CN(CC5CCOCC5)C[C@@H]43)nn1)OCO2 [Compound 30, (1R,5S,6s)-N-[6-(1,3-benzodioxol-5-yl)pyridazin-3-yl]-3-(tetrahydropyran-4-ylmethyl)-3-azabicyclo[3.1.0]hexan-6-amine] | 16 |  |
| Fc1cccc(-c2ccc(N[C@H]3[C@@H]4CN(CC5CCOCC5)C[C@@H]43)nn2)c1F [Compound 31, (1R,5S,6s)-N-[6-(2,3-difluorophenyl)pyridazin-3-yl]-3-(tetrahydropyran-4-ylmethyl)-3-azabicyclo[3.1.0]hexan-6-amine] | 27 |  |
| Fc1ccc(-c2ccc(N[C@H]3[C@@H]4CN(CC5CCOCC5)C[C@@H]43)nn2)c(F)c1 [Compound 32, (1R,5S,6s)-N-[6-(2,4-difluorophenyl)pyridazin-3-yl]-3-(tetrahydropyran-4-ylmethyl)-3-azabicyclo[3.1.0]hexan-6-amine] | 40 |  |
| Fc1ccc(F)c(-c2ccc(N[C@H]3[C@@H]4CN(Cc5ccccc5F)C[C@@H]43)nn2)c1 [Compound 33, (1R,5S,6s)-N-[6-(2,5-difluorophenyl)pyridazin-3-yl]-3-[(2-fluorophenyl)methyl]-3-azabicyclo[3.1.0]hexan-6-amine] | 39 |  |
| Fc1ccc(F)c(-c2ccc(N[C@H]3[C@@H]4CN(Cc5ccccn5)C[C@@H]43)nn2)c1 [Compound 34, (1R,5S,6s)-N-[6-(2,5-difluorophenyl)pyridazin-3-yl]-3-(2-pyridylmethyl)-3-azabicyclo[3.1.0]hexan-6-amine] | 46 |  |
| Fc1ccc(F)c(-c2ccc(N[C@H]3[C@@H]4CN(Cc5ccc6c(c5)OCO6)C[C@@H]43)nn2)c1 [Compound 35, (1R,5S,6s)-3-(1,3-benzodioxol-5-ylmethyl)-N-[6-(2,5-difluorophenyl)pyridazin-3-yl]-3-azabicyclo[3.1.0]hexan-6-amine] | 36 |  |
| Cc1cc(CN2C[C@@H]3[C@H](C2)[C@H]3Nc2ccc(-c3cc(F)ccc3F)nn2)nn1C [Compound 36, (1R,5S,6s)-N-[6-(2,5-difluorophenyl)pyridazin-3-yl]-3-[(1,5-dimethylpyrazol-3-yl)methyl]-3-azabicyclo[3.1.0]hexan-6-amine] | 38 |  |
| CC(C)(C)CCN1C[C@@H]2[C@H](C1)[C@H]2Nc1ccc(-c2cc(F)ccc2F)nn1 [Compound 37, (1R,5S,6s)-N-[6-(2,5-difluorophenyl)pyridazin-3-yl]-3-(3,3-dimethylbutyl)-3-azabicyclo[3.1.0]hexan-6-amine] | 4 | 6.59 |
| Cc1cc(CN2C[C@@H]3[C@H](C2)[C@H]3Nc2ccc(-c3ccc4nn(C)cc4c3)nn2)nn1C [Compound 38, (1R,5S,6s)-3-[(1,5-dimethylpyrazol-3-yl)methyl]-N-[6-(2-methylindazol-5-yl)pyridazin-3-yl]-3-azabicyclo[3.1.0]hexan-6-amine] | 40 | < 5.00 |
| Cn1cc2cc(-c3ccc(N[C@H]4[C@@H]5CN(CCC(C)(C)C)C[C@@H]54)nn3)ccc2n1 [Compound 39, (1R,5S,6s)-3-(3,3-dimethylbutyl)-N-[6-(2-methylindazol-5-yl)pyridazin-3-yl]-3-azabicyclo[3.1.0]hexan-6-amine] | 5 | 6.86 |
